Measured values reported in PubChem BioAssay (NCI).
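In this assay, cells in 96-well plates receive the compound at five concentrations for 48 hours. Endpoints are linearly interpolated between the surrounding concentrations. The concentration for full growth arrest is given as TGI.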

How the values were obtained:
Assay in all cases: NCI anticancer screen, dose series, 48 h
[1] = tested on: OVCAR-3 ovarian
[2] = tested on: RXF-631 renal
[3] = tested on: NCI-H460 lung
[4] = tested on: HT29 colon
[5] = tested on: CCRF-CEM leukemia
[6] = tested on: IGROV1 ovarian
[7] = tested on: HCT-15 colon
[8] = tested on: OVCAR-4 ovarian
[9] = tested on: A498 renal
[10] = tested on: U251 CNS
[11] = tested on: SNB-19 CNS
[12] = tested on: SF-268 CNS
[13] = tested on: M19-MEL melanoma
[14] = tested on: UO-31 renal
[15] = tested on: DMS 273 small cell lung
[16] = tested on: 786-0 renal
[17] = tested on: MOLT-4 leukemia
[18] = tested on: M14 melanoma
[19] = tested on: UACC-257 melanoma
[20] = tested on: KM20L2 colon
[21] = tested on: RPMI-8226 leukemia
[22] = tested on: K-562 leukemia
[23] = tested on: HCC-2998 colon
[24] = tested on: MALME-3M melanoma
[25] = tested on: EKVX NSCLC
[26] = tested on: UACC-62 melanoma
[27] = tested on: KM12 colon
[28] = tested on: TK-10 renal
[29] = tested on: SK-MEL-28 melanoma
[30] = tested on: SN12C renal
[31] = tested on: NCI-H522 lung
[32] = tested on: COLO 205 colon
[33] = tested on: HL-60(TB) leukemia
[34] = tested on: OVCAR-8 ovarian
[35] = tested on: SF-295 CNS
[36] = tested on: A549 NSCLC
[37] = tested on: HCT-116 colon
[38] = tested on: DLD-1 colon
[39] = tested on: CAKI-1 renal
[40] = tested on: DMS 114 small cell lung
[41] = tested on: SK-MEL-5 melanoma
[42] = tested on: SNB-78 CNS
[43] = tested on: LXFL 529 NSCLC
[44] = tested on: SF-539 CNS
[45] = tested on: NCI-H23 lung
[46] = tested on: LOX IMVI melanoma
[47] = tested on: SK-MEL-2 melanoma
[48] = tested on: SK-OV-3 ovarian
[49] = tested on: HOP-92 NSCLC
[50] = tested on: HOP-62 NSCLC
[51] = tested on: NCI-H226 lung
[52] = tested on: ACHN renal
[53] = tested on: RXF 393 renal
[54] = tested on: SW-620 colon
[55] = tested on: SNB-75 CNS
[56] = tested on: OVCAR-5 ovarian
[57] = tested on: MDA-MB-231 breast
[58] = tested on: BT-549 breast
[59] = tested on: MDA-N
[60] = tested on: DU-145 prostate
[61] = tested on: PC-3 prostate
[62] = tested on: HOP-18 NSCLC
[63] = tested on: HS 578T breast
[64] = tested on: T-47D breast
[65] = tested on: MDA-MB-435
[66] = tested on: MCF7 breast
[67] = tested on: XF 498 CNS

CC(=O)c1cc([N+](=O)[O-])ccc1OCC(=O)O
TGI [1]: > 100 µM
TGI [2]: > 100 µM
TGI [3]: > 100 µM
TGI [4]: > 100 µM
TGI [5]: > 100 µM
TGI [6]: > 100 µM
TGI [7]: > 100 µM
TGI [8]: > 100 µM
TGI [9]: > 100 µM
TGI [10]: > 100 µM
TGI [11]: > 100 µM
TGI [12]: > 100 µM
TGI [13]: > 100 µM
TGI [14]: > 100 µM
TGI [15]: > 100 µM
TGI [16]: > 100 µM
TGI [17]: > 100 µM
TGI [18]: > 100 µM
TGI [19]: > 100 µM
TGI [20]: > 100 µM
TGI [21]: > 100 µM
TGI [22]: > 100 µM
TGI [23]: > 100 µM
TGI [24]: > 100 µM
TGI [25]: > 100 µM
TGI [26]: > 100 µM
TGI [27]: > 100 µM
TGI [28]: > 100 µM
TGI [29]: > 100 µM
TGI [30]: > 100 µM
TGI [31]: > 100 µM
TGI [32]: > 100 µM
TGI [33]: > 100 µM
TGI [34]: > 100 µM
TGI [35]: > 100 µM
TGI [36]: > 100 µM
TGI [37]: > 100 µM
TGI [38]: > 100 µM
TGI [39]: > 100 µM
TGI [40]: > 100 µM
TGI [41]: > 100 µM
TGI [42]: > 100 µM
TGI [43]: > 100 µM
TGI [44]: > 100 µM
TGI [45]: > 100 µM
TGI [46]: > 100 µM
TGI [47]: > 100 µM
TGI [48]: > 100 µM
TGI [49]: > 100 µM
TGI [50]: > 100 µM
TGI [51]: > 100 µM
TGI [52]: > 100 µM
TGI [53]: > 100 µM
TGI [54]: > 100 µM
TGI [55]: > 100 µM
TGI [56]: > 100 µM

CCCCCCCCCCCCCC(=O)CBr
TGI [1]: 39.9 µM
TGI [2]: 33.7 µM
TGI [3]: 35.3 µM
TGI [4]: 30.5 µM
TGI [5]: 2.6 µM
TGI [6]: 15.1 µM
TGI [57]: 34.2 µM
TGI [7]: 28.3 µM
TGI [8]: 28.8 µM
TGI [9]: 35.5 µM
TGI [10]: 28.8 µM
TGI [11]: 33.7 µM
TGI [12]: 20 µM
TGI [13]: 23.5 µM
TGI [58]: 22.6 µM
TGI [14]: 24 µM
TGI [16]: 11.3 µM
TGI [17]: 2.9 µM
TGI [18]: 26.6 µM
TGI [19]: 17.7 µM
TGI [59]: 25 µM
TGI [20]: 26 µM
TGI [60]: 33.7 µM
TGI [21]: 4.24 µM
TGI [22]: 17.4 µM
TGI [23]: 32.1 µM
TGI [24]: 23.6 µM
TGI [25]: 39.9 µM
TGI [26]: 17.9 µM
TGI [27]: 16.9 µM
TGI [28]: 29.7 µM
TGI [29]: 30.7 µM
TGI [30]: 43.3 µM
TGI [31]: 3.85 µM
TGI [61]: 16.3 µM
TGI [32]: 30.1 µM
TGI [33]: 3.08 µM
TGI [34]: 35.6 µM
TGI [62]: 29.3 µM
TGI [35]: 29.3 µM
TGI [36]: 50.7 µM
TGI [37]: 17 µM
TGI [38]: 34.3 µM
TGI [39]: 3.13 µM
TGI [40]: 9.3 µM
TGI [41]: 26.3 µM
TGI [42]: 30.9 µM
TGI [63]: 52.4 µM
TGI [43]: 9.13 µM
TGI [44]: 30.7 µM
TGI [64]: 18.7 µM
TGI [45]: 23 µM
TGI [46]: 23 µM
TGI [47]: 26.3 µM
TGI [48]: 43.2 µM
TGI [49]: 6.43 µM
TGI [50]: 50.6 µM
TGI [51]: 35.1 µM
TGI [65]: 32 µM
TGI [52]: 30.1 µM
TGI [53]: 10.5 µM
TGI [54]: 30.2 µM
TGI [55]: 16 µM
TGI [66]: 30.2 µM
TGI [56]: 49.8 µM

COc1ccc(O)c(C#N)c1C#N
TGI [1]: > 100 µM
TGI [3]: > 100 µM
TGI [4]: > 100 µM
TGI [5]: > 100 µM
TGI [6]: > 100 µM
TGI [7]: > 100 µM
TGI [8]: > 100 µM
TGI [9]: > 100 µM
TGI [10]: > 100 µM
TGI [11]: > 100 µM
TGI [12]: > 100 µM
TGI [13]: > 100 µM
TGI [14]: > 100 µM
TGI [15]: > 100 µM
TGI [16]: > 100 µM
TGI [17]: > 100 µM
TGI [18]: > 100 µM
TGI [19]: > 100 µM
TGI [20]: > 100 µM
TGI [21]: > 100 µM
TGI [22]: > 100 µM
TGI [23]: > 100 µM
TGI [24]: > 100 µM
TGI [25]: > 100 µM
TGI [26]: > 100 µM
TGI [27]: > 100 µM
TGI [28]: > 100 µM
TGI [30]: > 100 µM
TGI [31]: > 100 µM
TGI [32]: > 100 µM
TGI [33]: > 100 µM
TGI [34]: > 100 µM
TGI [35]: > 100 µM
TGI [36]: > 100 µM
TGI [37]: > 100 µM
TGI [39]: > 100 µM
TGI [41]: > 100 µM
TGI [42]: > 100 µM
TGI [43]: > 100 µM
TGI [44]: > 100 µM
TGI [45]: > 100 µM
TGI [46]: > 100 µM
TGI [47]: > 100 µM
TGI [48]: > 100 µM
TGI [50]: > 100 µM
TGI [51]: > 100 µM
TGI [67]: > 100 µM
TGI [52]: > 100 µM
TGI [53]: > 100 µM
TGI [54]: > 100 µM
TGI [55]: > 100 µM
TGI [56]: > 100 µM
